Source: patent US9382208B1, “Negative allosteric modulators of metabotropic glutamate receptor 2” (Vanderbilt University, priority 2015, dated 2016)
Read-outs that look alike come from different tables or passages of the source.

Target: T1, rat mGlu2 (Rattus norvegicus, UniProt P31421)
T1 construct: expressed in transfected cells
Test: mGlu2 Ca2+ flux assay
Format: cell-based
Conditions: for remaining activity at 30 µM: amplitude of response in the presence of 30 μM test compound as percentage of maximal response to glutamate, read-out: rat mGlu2 Glu max (%)
Description: Gα15 HEK293 cells stably expressing rat mGlu2 were plated in black-walled, clear-bottomed, poly-D-lysine coated 384-well plates in 20 μL of assay medium (DMEM containing 10% dialyzed FBS, 20 mM HEPES, and 1 mM sodium pyruvate) at a density of 12K cells/well. The cells were grown overnight at 37° C. in the presence of 5% CO2. The next day, medium was removed and the cells incubated with 20 μL of 2.3 μM Fluo-4, AM prepared as a 2.3 mM stock in DMSO and mixed in a 1:1 ratio with 10% (w/v) pluronic acid F-127 and diluted in assay buffer (Hank's balanced salt solution, 20 mM HEPES, and 2.5 mM probenecid) for 45 minutes at 37° C. Dye was removed, 20 μL of assay buffer was added, and the plate was incubated for 5 minutes at room temperature.
Ca^2+ flux was measured using the Functional Drug Screening System (FDSS7000, Hamamatsu, Japan). After establishment of a fluorescence baseline for about 3 seconds, the compounds of the present invention were added to the cells, and the response in cells was measured. 2.3 minutes later an EC20 concentration of the mGlu2 receptor agonist glutamate was added to the cells, and the response of the cells was measured for 1.9 minutes; an EC80 concentration of agonist was added and readings taken for an additional 1.7 minutes. All test compounds were dissolved and diluted to a concentration of 10 mM in 100% DMSO. Compounds were then serially diluted 1:3 in DMSO into 10 point concentration response curves, transferred to daughter plates, and further diluted into assay buffer to a 2× stock. Calcium fluorescence measures were recorded as fold over basal fluorescence; raw data was then normalized to the maximal response to glutamate. Antagonism of the agonist response of the mGlu2 receptor in the present invention was observed as a decrease in response to nearly maximal concentrations of glutamate in the presence of compound compared to the response to glutamate in the absence of compound.
The raw data file containing all time points was used as the data source in the analysis template. This was saved by the FDSS as a tab-delimited text file. Data were normalized using a static ratio function (F/F0) for each measurement of the total 360 values per well divided by each well's initial value. Data were then reduced to peak amplitudes (Max−Initial Min) using a time range that starts approximately 3 seconds prior to the glutamate EC80 addition and continues for approximately 90 seconds. This is sufficient time to capture the peak amplitude of the cellular calcium response. Individual amplitudes were expressed as % ECMax by multiplying each amplitude by 100 and then dividing the product by the mean of the amplitudes derived from the glutamate ECMax-treated wells. IC50 values for test compounds were generated by fitting the normalized values versus the log of the test compound concentration (in mol/L) using a 4 parameter logistic equation where none of the parameters were fixed. Each of the three values collected at each concentration of test compound were weighted evenly.
For NAMs, potency (IC50) and maximum response (% Glu Max), i.e. the amplitude of response in the presence of 30 μM test compound as a percentage of the maximal response to glutamate, are reported. […] Compounds with no measurable activity are designated as “>30,000 nM” since the top concentration of compound tested in the assay is 30 μM.

[1] = Gα15 HEK293 cells stably expressing rat mGlu2, glutamate EC80 addition, read-out: rat mGlu2 IC50

T1 sequence (P31421 19-872): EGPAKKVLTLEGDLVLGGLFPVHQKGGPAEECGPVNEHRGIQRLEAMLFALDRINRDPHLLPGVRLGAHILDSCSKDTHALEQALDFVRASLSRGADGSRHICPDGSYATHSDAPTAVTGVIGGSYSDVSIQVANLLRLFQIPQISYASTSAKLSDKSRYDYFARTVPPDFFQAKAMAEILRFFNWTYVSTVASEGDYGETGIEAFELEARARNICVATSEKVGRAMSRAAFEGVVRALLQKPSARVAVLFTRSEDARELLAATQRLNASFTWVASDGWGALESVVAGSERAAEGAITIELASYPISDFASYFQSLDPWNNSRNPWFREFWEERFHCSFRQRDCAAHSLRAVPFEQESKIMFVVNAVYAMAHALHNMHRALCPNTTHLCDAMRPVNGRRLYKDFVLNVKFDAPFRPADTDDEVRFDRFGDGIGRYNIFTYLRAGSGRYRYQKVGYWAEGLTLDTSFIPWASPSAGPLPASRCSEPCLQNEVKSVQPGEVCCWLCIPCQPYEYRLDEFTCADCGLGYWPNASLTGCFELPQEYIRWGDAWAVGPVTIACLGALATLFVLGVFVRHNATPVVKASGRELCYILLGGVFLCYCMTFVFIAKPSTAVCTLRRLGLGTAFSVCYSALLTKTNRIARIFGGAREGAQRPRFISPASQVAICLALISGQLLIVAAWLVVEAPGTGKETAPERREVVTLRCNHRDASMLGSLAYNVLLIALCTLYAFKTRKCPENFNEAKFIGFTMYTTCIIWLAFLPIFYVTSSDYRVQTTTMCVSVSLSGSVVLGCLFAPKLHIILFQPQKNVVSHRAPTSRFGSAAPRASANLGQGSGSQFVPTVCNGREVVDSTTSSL

Row | IC50 [1] [nM] | remaining activity at 30 µM [%] | Compound | IC50 [nM]
1 | > 10000 | 18.7 | Cc1ccccc1CCc1ccc2c(c1)c(=O)c(C(N)=O)cn2-c1ccc(F)cc1 [Compound 8, 1-(4-fluorophenyl)-6-(2-methylphenethyl)-4-oxo-1,4-dihydroquinoline-3-carboxamide] | 
2 | 1770 | 5.78 | NC(=O)c1cn(-c2ccc(F)cc2)c2c(F)cc(CN3CCC(F)(F)CC3)cc2c1=O [Compound 94, 6-((4,4-difluoropiperidin-1-yl)methyl)-8-fluoro-1-(4-fluorophenyl)-4-oxo-1,4-dihydroquinoline-3-carboxamide] | 
3 | 243 ± 63 | 1.83 ± 0.2 | NC(=O)c1cn(-c2ccc(F)cc2)c2ccc(COc3ccncc3F)cc2c1=O [Compound 32, 1-(4-fluorophenyl)-6-(((3-fluoropyridin-4-yl)oxy)methyl)-4-oxo-1,4-dihydroquinoline-3-carboxamide] | 
4 | 482 ± 87 | 1.9 ± 0.11 | NC(=O)c1cn(-c2ccc(F)cc2)c2ccc(CCc3cccnc3)cc2c1=O [Compound 10, 1-(4-fluorophenyl)-4-oxo-6-(2-(pyridin-3-yl)ethyl)-1,4-dihydroquinoline-3-carboxamide] | 
5 | 460 ± 62 | 1.07 ± 0.13 | CC(Oc1ccc2c(c1)c(=O)c(C(N)=O)cn2-c1ccc(F)cc1)c1ccncc1 (stereo not drawn) [Compound 23, 1-(4-fluorophenyl)-4-oxo-6-(1-(pyridin-4-yl)ethoxy)-1,4-dihydroquinoline-3-carboxamide] | 
6 | 153 ± 33 | 1.86 ± 0.26 | Cc1ncc(CN(C)c2ccc3c(c2)c(=O)c(C(N)=O)cn3-c2ccc(F)cc2)cn1 [Compound 31, 1-(4-fluorophenyl)-6-(methyl((2-methylpyrimidin-5-yl)methyl)amino)-4-oxo-1,4-dihydroquinoline-3-carboxamide] | 
7 | 2700 | 1.02 | Cc1ncc(CCc2cc3c(=O)c(C(N)=O)cn(-c4ccc(F)cc4)c3cc2F)cn1 [Compound 54, 7-fluoro-1-(4-fluorophenyl)-6-(2-(2-methylpyrimidin-5-yl)ethyl)-4-oxo-1,4-dihydroquinoline-3-carboxamide] | 
8 | 259 | 0.98 | NC(=O)c1cn(-c2ccc(F)cc2)c2ccc(CN3CCC(F)(F)C3)cc2c1=O [Compound 86, 6-((3,3-difluoropyrrolidin-1-yl)methyl)-1-(4-fluorophenyl)-4-oxo-1,4-dihydroquinoline-3-carboxamide] | 
9 | 397 | 1.03 | CN(Cc1ccc2c(c1)c(=O)c(C(N)=O)cn2-c1ccc(F)cc1)C1CC(F)(F)C1 [Compound 80, 6-(((3,3-difluorocyclobutyl)(methyl)amino)methyl)-1-(4-fluorophenyl)-4-oxo-1,4-dihydroquinoline-3-carboxamide] | 
10 | 659 | 1.04 | NC(=O)c1cn(-c2ccc(F)cc2)c2ccc(NCC3CCOCC3)cc2c1=O [Compound 53, 1-(4-fluorophenyl)-4-oxo-6-(((tetrahydro-2H-pyran-4-yl)methyl)amino)-1,4-dihydroquinoline-3-carboxamide] | 
11 | > 30000 |  | CN(Cc1cc(F)c2c(c1)c(=O)c(C(N)=O)cn2-c1ccc(F)cc1)C1CC(F)(F)C1 [Compound 91, 6-(((3,3-difluorocyclobutyl)(methyl)amino)methyl)-8-fluoro-1-(4-fluorophenyl)-4-oxo-1,4-dihydroquinoline-3-carboxamide] | 
12 | 407 | 0.97 | NC(=O)c1cn(-c2ccc(F)cc2)c2ccc(-c3ccncc3)cc2c1=O [Compound 63, 1-(4-fluorophenyl)-4-oxo-6-(pyridin-4-yl)-1,4-dihydroquinoline-3-carboxamide] | 
13 | 541 ± 116 | 1.55 ± 0.39 | Cc1ccc(COc2ccc3c(c2)c(=O)c(C(N)=O)cn3-c2ccc(F)cc2)cn1 [Compound 21, 1-(4-fluorophenyl)-6-((6-methylpyridin-3-yl)methoxy)-4-oxo-1,4-dihydroquinoline-3-carboxamide] | 

Further lines, the compound ahead of its results:

Row | Compound | IC50 [1] [nM] | remaining activity at 30 µM [%] | IC50 [nM]
14 | Cc1ccc(OCc2ccc3c(c2)c(=O)c(C(N)=O)cn3-c2ccc(F)cc2)cn1 [Compound 41, 1-(4-fluorophenyl)-6-(((6-methylpyridin-3-yl)oxy)methyl)-4-oxo-1,4-dihydroquinoline-3-carboxamide] | 265 ± 73 | 1.62 ± 0.23 | 
15 | CN(Cc1cccnc1)c1ccc2c(c1)c(=O)c(C#N)cn2-c1ccc(F)cc1 [Compound 96, 1-(4-Fluorophenyl)-6-(methyl(pyridin-3-ylmethyl)amino)-4-oxo-1,4-dihydroquinoline-3-carbonitrile] |  | 3.44 | 3160
16 | NC(=O)c1cn(-c2ccc(F)cc2)c2ccc(COc3ccc(F)nc3)cc2c1=O [Compound 45, 1-(4-fluorophenyl)-6-(((6-fluoropyridin-3-yl)oxy)methyl)-4-oxo-1,4-dihydroquinoline-3-carboxamide] | 352 | 1.47 | 
17 | CN(Cc1cccnc1)c1cc(F)c2c(c1)c(=O)c(C(N)=O)cn2-c1ccc(F)cc1 [Compound 51, 8-fluoro-1-(4-fluorophenyl)-6-(methyl(pyridin-3-ylmethyl)amino)-4-oxo-1,4-dihydroquinoline-3-carboxamide] | 1180 | 1.39 | 
18 | NC(=O)c1cn(-c2ccc(F)cc2)c2ccc(COc3ccc(C(F)(F)F)nc3)cc2c1=O [Compound 36, 1-(4-fluorophenyl)-4-oxo-6-(((6-(trifluoromethyl)pyridin-3-yl)oxy)methyl)-1,4-dihydroquinoline-3-carboxamide] | 1460 | 1.28 | 
19 | CN(Cc1ccc2c(c1)c(=O)c(C(N)=O)cn2-c1ccc(F)cc1)C1CCCC1 [Compound 69, 6-((cyclopentyl(methyl)amino)methyl)-1-(4-fluorophenyl)-4-oxo-1,4-dihydroquinoline-3-carboxamide] | 2190 | 1.39 | 
20 | Cc1ncc(Oc2ccc3c(c2)c(=O)c(C(N)=O)cn3-c2ccc(F)cc2)cn1 [Compound 57, 1-(4-fluorophenyl)-6-((2-methylpyrimidin-5-yl)oxy)-4-oxo-1,4-dihydroquinoline-3-carboxamide] | 4480 | 15.7 | 
21 | NC(=O)c1cn(-c2ccc(F)cc2)c2ccc(CCc3ccccn3)cc2c1=O [Compound 11, 1-(4-fluorophenyl)-4-oxo-6-(2-(pyridin-2-yl)ethyl)-1,4-dihydroquinoline-3-carboxamide] | 2590 | 0.92 | 
22 | NC(=O)c1cn(-c2ccc(F)cc2)c2ccc(NCCc3cccnc3)cc2c1=O [Compound 27, 1-(4-fluorophenyl)-4-oxo-6-((2-(pyridin-3-yl)ethyl)amino)-1,4-dihydroquinoline-3-carboxamide] | 391 | 1.75 | 
23 | NC(=O)c1cn(-c2ccc(F)cc2)c2c(F)cc(CN3CCC(F)(F)C3)cc2c1=O [Compound 95, 6-((3,3-difluoropyrrolidin-1-yl)methyl)-8-fluoro-1-(4-fluorophenyl)-4-oxo-1,4-dihydroquinoline-3-carboxamide] | > 10000 | 31.1 | 
24 | COc1ccc(-n2cc(C(N)=O)c(=O)c3cc(CCc4cnc(C)nc4)ccc32)cc1 [Compound 15, 1-(4-methoxyphenyl)-6-(2-(2-methylpyrimidin-5-yl)ethyl)-4-oxo-1,4-dihydroquinoline-3-carboxamide] | 139 | 1.61 | 
25 | Cc1ccc(Oc2ccc3c(c2)c(=O)c(C(N)=O)cn3-c2ccc(F)cc2)cn1 [Compound 55, 1-(4-Fluorophenyl)-6-((6-methylpyridin-3-yl)oxy)-4-oxo-1,4-dihydroquinoline-3-carboxamide] | 1710 | 1.96 | 
26 | NC(=O)c1cn(-c2ccc(F)cc2)c2ccc(N3CCC(N4CCOCC4)C3)cc2c1=O (stereo not drawn) [Compound 50, 1-(4-fluorophenyl)-6-(3-morpholinopyrrolidin-1-yl)-4-oxo-1,4-dihydroquinoline-3-carboxamide] | 1320 | 1.08 | 
